Source: patent US10239869B2, “Sulfonamide compounds as voltage-gated sodium channel modulators” (LUPIN LIMITED, priority 2015, dated 2019)
Like-named read-outs stand apart in the source and are kept apart here.

Tests used:
Nav 1.7 = Nav 1.7 (Homo sapiens (Human), UniProt Q15858); assay: Inhibition of sodium channels, Red Membrane Potential Dye FLIPR assay, veratridine depolarization; assay type: cell-based; settings: HEK-293 cells overexpressing the channel; read-out: Nav1.7 IC50
Nav 1.5 = Nav 1.5 (Homo sapiens (Human), UniProt Q14524); assay: as above; assay type: cell-based; settings: HEK-293 cells overexpressing the channel
Chain of Nav 1.5 (Q14524 whole entry): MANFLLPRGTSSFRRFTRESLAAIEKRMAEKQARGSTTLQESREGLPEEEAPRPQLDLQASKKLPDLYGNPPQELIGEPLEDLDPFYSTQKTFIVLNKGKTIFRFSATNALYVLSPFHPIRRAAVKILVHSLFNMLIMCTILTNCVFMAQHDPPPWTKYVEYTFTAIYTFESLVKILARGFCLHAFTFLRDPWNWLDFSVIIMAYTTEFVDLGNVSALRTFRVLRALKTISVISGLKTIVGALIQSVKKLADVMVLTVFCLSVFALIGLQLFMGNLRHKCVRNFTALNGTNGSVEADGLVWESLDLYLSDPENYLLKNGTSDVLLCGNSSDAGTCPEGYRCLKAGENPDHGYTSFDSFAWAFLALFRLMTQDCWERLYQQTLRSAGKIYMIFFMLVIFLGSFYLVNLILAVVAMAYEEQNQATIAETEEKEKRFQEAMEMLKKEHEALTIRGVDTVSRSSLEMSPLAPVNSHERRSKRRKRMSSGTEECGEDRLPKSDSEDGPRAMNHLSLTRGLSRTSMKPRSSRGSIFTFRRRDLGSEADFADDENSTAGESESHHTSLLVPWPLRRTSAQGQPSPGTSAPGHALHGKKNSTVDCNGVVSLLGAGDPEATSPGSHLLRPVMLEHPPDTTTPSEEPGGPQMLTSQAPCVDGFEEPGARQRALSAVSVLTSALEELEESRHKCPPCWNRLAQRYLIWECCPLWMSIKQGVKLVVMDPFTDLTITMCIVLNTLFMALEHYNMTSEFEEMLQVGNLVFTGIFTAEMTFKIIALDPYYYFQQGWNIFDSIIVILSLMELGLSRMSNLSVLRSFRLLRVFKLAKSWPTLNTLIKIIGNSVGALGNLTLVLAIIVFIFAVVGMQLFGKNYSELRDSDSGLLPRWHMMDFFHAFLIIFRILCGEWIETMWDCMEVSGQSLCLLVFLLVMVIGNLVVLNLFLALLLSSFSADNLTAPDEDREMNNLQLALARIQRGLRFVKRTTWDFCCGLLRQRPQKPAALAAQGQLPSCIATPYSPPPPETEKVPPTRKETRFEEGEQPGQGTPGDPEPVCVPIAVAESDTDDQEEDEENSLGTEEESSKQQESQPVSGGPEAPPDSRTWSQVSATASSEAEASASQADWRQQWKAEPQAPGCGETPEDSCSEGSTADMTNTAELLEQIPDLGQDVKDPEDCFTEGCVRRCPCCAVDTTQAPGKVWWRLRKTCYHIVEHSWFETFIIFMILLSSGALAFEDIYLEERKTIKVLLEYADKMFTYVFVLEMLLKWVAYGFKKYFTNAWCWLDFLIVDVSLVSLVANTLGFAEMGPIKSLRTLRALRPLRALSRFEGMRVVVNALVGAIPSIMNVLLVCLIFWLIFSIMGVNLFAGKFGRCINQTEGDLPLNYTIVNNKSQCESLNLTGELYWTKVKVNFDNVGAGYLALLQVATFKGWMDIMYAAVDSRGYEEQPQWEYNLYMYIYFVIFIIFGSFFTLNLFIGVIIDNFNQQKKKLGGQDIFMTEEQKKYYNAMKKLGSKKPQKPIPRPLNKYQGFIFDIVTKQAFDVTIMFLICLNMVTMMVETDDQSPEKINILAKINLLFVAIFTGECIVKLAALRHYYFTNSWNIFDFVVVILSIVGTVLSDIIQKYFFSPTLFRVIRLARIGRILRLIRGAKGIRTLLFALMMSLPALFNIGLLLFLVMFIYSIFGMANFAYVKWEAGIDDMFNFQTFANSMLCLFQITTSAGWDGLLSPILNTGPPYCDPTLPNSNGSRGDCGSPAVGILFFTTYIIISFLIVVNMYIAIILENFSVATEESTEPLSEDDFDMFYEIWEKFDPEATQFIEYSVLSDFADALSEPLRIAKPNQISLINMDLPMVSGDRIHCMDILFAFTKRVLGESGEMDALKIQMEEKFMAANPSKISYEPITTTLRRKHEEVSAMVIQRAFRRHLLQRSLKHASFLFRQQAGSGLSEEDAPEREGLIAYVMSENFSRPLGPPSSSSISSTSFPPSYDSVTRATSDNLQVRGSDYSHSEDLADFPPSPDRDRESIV

[1] = read-out: Nav1.5 IC50 (bound given in μM)

Chain of Nav 1.7 (Q15858 whole entry): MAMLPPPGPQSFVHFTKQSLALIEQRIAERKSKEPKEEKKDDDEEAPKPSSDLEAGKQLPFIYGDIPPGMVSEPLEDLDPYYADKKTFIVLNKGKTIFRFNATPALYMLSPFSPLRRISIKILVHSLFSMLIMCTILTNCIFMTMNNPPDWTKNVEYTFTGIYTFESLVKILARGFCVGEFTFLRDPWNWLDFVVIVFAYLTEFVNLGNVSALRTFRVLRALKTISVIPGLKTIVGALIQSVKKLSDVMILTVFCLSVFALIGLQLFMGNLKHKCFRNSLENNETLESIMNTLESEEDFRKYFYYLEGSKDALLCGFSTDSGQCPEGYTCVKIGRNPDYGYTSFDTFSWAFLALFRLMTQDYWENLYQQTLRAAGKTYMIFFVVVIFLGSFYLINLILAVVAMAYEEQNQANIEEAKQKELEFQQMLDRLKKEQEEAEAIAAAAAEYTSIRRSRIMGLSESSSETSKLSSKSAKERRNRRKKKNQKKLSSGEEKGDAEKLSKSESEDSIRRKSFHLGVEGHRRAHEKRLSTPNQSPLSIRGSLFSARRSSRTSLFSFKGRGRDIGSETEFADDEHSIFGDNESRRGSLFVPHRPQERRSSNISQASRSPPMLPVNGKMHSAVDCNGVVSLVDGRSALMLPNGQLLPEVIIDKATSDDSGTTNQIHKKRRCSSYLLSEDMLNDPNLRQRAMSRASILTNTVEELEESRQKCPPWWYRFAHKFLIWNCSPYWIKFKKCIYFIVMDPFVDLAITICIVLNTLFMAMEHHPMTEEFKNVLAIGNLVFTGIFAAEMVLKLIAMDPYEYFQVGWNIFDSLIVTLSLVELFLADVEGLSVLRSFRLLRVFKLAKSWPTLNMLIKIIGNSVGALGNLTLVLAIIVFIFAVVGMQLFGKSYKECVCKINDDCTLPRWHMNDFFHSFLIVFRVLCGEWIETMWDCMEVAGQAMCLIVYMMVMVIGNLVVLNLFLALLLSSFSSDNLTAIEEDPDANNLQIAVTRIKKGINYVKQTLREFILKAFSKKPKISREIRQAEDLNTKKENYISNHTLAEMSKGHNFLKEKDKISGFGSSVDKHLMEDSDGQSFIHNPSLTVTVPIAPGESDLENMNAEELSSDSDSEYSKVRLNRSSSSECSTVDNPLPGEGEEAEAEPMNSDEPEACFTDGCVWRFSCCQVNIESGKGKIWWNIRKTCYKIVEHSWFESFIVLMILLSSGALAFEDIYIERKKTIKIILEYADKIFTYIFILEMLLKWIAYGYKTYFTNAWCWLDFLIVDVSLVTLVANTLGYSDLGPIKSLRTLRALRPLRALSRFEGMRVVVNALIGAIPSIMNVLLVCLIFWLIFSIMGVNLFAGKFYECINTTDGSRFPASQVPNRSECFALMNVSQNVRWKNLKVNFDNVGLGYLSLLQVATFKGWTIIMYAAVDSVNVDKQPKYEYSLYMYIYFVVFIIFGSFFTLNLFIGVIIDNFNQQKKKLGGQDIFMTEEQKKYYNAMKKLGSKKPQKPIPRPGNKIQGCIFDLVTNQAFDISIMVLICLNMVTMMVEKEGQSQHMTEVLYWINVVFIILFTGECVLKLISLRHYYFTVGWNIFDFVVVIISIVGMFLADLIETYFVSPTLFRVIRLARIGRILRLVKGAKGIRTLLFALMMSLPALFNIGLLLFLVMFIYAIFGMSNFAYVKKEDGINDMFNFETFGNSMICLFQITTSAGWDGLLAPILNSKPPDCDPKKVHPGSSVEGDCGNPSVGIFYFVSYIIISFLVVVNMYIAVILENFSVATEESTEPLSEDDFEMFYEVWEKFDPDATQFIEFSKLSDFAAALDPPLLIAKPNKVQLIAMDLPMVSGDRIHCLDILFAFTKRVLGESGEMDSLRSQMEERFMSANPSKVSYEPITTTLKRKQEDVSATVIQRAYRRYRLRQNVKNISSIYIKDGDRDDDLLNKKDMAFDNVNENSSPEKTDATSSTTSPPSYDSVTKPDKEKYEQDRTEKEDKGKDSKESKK

`Cc1nc(-c2cc(C(F)(F)F)ccc2[C@@H]2CCOc3cc(S(=O)(=O)Nc4cccc(F)n4)ccc32)cs1` [Example 61] was tested, and the IC50 (Nav 1.7) was 568 nM and the IC50 (Nav 1.5; [1]) was over 10 µM.

`O=S(=O)(Nc1ncc(F)cn1)c1ccc2c(c1)OCC[C@@H]2c1ccc(C(F)(F)F)cc1OC1COC1` (racemic) [Example-218, (S/R)—N-(5-fluoropyrimidin-2-yl)-4-(2-(oxetan-3-yloxy)-4-(trifluoromethyl)phenyl)chroman-7-sulfonamide] showed an IC50 (Nav 1.7) of 43 nM and an IC50 (Nav 1.5; [1]) of over 10 µM.

`Cc1nc(-c2cc(C(F)(F)F)ccc2[C@H]2CCOc3cc(S(=O)(=O)Nc4cccnn4)ccc32)co1` [Example 80, (S&R)-4-(2-(2-methyloxazol-4-yl)-4-(trifluoromethyl)phenyl)-N-(pyridazin-3-yl)chroman-7-sulfonamide] was tested, and the IC50 (Nav 1.7) was 114 nM and the “Nav1.5 % inhibition @ 10 μM” value (Nav 1.5; 10 μM) was 53%.

Work on `O=S(=O)(Nc1cccnn1)c1ccc2c(c1)OCC[C@H]2c1ccc(C(F)(F)F)cc1-c1ccc(F)nc1` [Example 41, (S&R)-4-(2-(6-Fluoropyridin-3-yl)-4-(trifluoromethyl)phenyl)-N-(pyridazin-3-yl)chromane-7-sulfonamide] yielded an IC50 (Nav 1.7) of 622 nM and an IC50 (Nav 1.5; [1]) of over 10 µM.

With `O=C1COCCN1c1cc(C(F)(F)F)ccc1[C@H]1CCOc2cc(S(=O)(=O)Nc3ncccn3)ccc21` [Example-231, (S&R)-4-(2-(3-oxomorpholino)-4-(trifluoromethyl)phenyl)-N-(pyrimidin-2-yl)chroman-7-sulfonamide] the IC50 (Nav 1.7) was 559 nM and the IC50 (Nav 1.5; [1]) was over 10 µM.

In the case of `O=S(=O)(Nc1cccc(F)n1)c1ccc2c(c1)OCC[C@@H]2c1ccc(C(F)(F)F)cc1CCC(F)F` (racemic) [Example-215, (R/S)-4-(2-(3,3-difluoropropyl)-4-(trifluoromethyl)phenyl)-N-(6-fluoropyridin-2-yl)chromane-7-sulfonamide], the IC50 (Nav 1.7) is reported as 38 nM and the IC50 (Nav 1.5; read-out: Nav1.5 IC50) is reported as 1.35 µM.

For `O=C(O)c1ccc(-c2cc(C(F)(F)F)ccc2[C@H]2CCOc3cc(S(=O)(=O)Nc4cccnn4)ccc32)cc1` (racemic) [Example-191, (R/S)-2′-(7-(N-(pyridazin-3-yl)sulfamoyl)chroman-4-yl)-5′-(trifluoromethyl)-[1,1′-biphenyl]-4-carboxylic acid], the IC50 (Nav 1.7) was 671 nM and the IC50 (Nav 1.5; [1]) was over 10 µM.
